Experimental data as given in ChEMBL document CHEMBL1201862, “PubChem BioAssay data set” (2004).
Blank lines part the entries; values can stand above or below the compound they belong to. Active and inactive are the calls of the source.

Tests used:
Assay type in all cases: functional
[1] = target: Dual specificity protein kinase CLK2 (Homo sapiens, UniProt P49760)
[2] = target: ALK tyrosine kinase receptor (Homo sapiens, UniProt Q9UM73);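 also: ALK tested as one member of a kinase panel screen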
[3] = target: Serine/threonine-protein kinase D3 (Homo sapiens, UniProt O94806);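 also: determined within a kinase panel screen, with PRKCN as the panel member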
[4] = target: Tyrosine-protein kinase Lck (Homo sapiens, UniProt P06239);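 also: lck was assayed as one member of a kinase panel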
[5] = target: Death-associated protein kinase 3 (Homo sapiens, UniProt O43293);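 also: measured as one member of a kinome-wide profiling panel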
[6] = target: Activin receptor type-1 (Homo sapiens, UniProt Q04771); experiment: Navigating the Kinome. Panel member name: ACVR1
Sequence of Activin receptor type-1 (Q04771 whole entry): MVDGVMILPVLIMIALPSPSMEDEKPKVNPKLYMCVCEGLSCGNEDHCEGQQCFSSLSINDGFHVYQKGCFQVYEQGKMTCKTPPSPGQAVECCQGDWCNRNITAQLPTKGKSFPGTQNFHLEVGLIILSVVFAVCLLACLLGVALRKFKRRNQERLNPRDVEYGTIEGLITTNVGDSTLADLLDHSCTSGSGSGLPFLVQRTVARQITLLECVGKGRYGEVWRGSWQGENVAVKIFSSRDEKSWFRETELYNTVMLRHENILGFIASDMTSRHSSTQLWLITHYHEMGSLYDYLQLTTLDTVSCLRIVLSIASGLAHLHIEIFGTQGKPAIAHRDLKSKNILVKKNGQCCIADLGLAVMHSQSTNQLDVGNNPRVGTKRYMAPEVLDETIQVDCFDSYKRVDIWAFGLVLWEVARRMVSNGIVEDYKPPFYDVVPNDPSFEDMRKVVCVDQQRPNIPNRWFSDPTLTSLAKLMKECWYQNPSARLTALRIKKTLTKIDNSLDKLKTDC

[7] = target: Mitogen-activated protein kinase 8 (Homo sapiens, UniProt P45983);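 also: value comes from one member of a kinome-wide kinase profiling panel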
Sequence of Mitogen-activated protein kinase 8 (P45983 whole entry): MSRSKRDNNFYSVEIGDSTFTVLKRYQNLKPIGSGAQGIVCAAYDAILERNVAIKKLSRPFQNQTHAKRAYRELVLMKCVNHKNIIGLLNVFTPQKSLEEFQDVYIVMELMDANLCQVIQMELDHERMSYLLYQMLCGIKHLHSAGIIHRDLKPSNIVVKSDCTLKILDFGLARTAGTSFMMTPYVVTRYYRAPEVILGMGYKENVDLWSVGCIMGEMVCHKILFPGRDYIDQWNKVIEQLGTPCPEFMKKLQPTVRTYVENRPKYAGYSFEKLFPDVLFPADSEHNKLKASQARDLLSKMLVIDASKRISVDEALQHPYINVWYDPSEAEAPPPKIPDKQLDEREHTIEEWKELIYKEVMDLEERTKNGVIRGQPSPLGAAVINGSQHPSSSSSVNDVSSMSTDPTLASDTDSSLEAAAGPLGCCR

[8] = target: Serine/threonine-protein kinase pim-1 (Homo sapiens, UniProt P11309)
[9] = target: Aurora kinase A (Homo sapiens, UniProt O14965);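 also: value from the Navigating the Kinome kinase panel profiling, panel entry STK6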
[10] = target: Tyrosine-protein kinase BTK (Homo sapiens, UniProt Q06187)
Sequence of Tyrosine-protein kinase BTK (Q06187 whole entry): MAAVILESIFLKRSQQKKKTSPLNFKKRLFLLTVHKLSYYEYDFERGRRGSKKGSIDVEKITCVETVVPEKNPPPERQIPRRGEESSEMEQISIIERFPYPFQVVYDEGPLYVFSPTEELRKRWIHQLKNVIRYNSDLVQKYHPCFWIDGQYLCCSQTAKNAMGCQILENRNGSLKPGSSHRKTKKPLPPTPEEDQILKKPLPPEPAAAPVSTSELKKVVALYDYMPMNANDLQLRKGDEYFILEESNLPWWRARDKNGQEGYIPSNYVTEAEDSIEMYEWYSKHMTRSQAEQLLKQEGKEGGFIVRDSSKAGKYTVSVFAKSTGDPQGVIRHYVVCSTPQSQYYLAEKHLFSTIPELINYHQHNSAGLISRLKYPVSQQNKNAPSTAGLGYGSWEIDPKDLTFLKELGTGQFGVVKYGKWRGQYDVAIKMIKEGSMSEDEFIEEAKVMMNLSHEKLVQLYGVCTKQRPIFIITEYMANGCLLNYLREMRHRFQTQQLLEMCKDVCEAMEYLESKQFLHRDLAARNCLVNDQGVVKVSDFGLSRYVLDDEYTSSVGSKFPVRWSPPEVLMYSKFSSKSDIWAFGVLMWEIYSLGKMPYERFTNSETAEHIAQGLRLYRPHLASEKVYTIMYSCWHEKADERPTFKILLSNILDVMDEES

[11] = target: Serine/threonine-protein kinase PAK 4 (Homo sapiens, UniProt O96013);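 also: value obtained within a kinome profiling panel in which PAK4 was one of the panel members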
[12] = target: Fibroblast growth factor receptor 1 (Homo sapiens, UniProt P11362)
[13] = target: Casein kinase I isoform alpha (Homo sapiens, UniProt P48729)
[14] = target: Tyrosine-protein kinase JAK3 (Homo sapiens, UniProt P52333)
Sequence of Tyrosine-protein kinase JAK3 (P52333 whole entry): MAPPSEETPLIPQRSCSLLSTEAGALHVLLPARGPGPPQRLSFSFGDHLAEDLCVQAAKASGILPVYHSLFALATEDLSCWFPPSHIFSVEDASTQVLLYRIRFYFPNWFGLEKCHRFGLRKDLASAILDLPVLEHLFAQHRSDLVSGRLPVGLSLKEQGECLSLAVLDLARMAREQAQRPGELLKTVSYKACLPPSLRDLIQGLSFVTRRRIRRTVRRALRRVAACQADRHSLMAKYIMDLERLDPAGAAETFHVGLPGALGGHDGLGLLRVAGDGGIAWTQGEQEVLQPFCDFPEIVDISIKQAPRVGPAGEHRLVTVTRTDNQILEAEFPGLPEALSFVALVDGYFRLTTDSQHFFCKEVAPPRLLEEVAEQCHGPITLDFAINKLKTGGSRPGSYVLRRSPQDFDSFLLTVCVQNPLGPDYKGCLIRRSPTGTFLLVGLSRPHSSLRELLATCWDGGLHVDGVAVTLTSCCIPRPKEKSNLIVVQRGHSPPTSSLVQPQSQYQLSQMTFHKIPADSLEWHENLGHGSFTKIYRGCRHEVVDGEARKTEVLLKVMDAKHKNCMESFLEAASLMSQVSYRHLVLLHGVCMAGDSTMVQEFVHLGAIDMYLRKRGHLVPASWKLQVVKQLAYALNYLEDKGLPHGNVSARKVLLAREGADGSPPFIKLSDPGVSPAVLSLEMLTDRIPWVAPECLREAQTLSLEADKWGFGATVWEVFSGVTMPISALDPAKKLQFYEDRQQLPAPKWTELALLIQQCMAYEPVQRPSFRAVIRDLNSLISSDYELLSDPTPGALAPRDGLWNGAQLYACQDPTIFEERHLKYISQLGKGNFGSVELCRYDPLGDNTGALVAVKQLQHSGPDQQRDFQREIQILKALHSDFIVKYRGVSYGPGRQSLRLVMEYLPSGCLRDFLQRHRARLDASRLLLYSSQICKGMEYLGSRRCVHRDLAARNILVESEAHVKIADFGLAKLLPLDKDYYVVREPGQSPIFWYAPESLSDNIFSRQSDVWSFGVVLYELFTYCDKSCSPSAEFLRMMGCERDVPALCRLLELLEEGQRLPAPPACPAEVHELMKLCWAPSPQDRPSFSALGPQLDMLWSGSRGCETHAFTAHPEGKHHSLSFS

[15] = target: Mitogen-activated protein kinase 9 (Homo sapiens, UniProt P45984);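 also: value from a kinome panel profiling assay, MAPK9 panel entry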
[16] = target: LIM domain kinase 1 (Homo sapiens, UniProt P53667); experiment: Navigating the Kinome. Panel member name: LIMK1
[17] = target: Serine/threonine-protein kinase TAO1 (Homo sapiens, UniProt Q7L7X3)
Sequence of Serine/threonine-protein kinase TAO1 (Q7L7X3 whole entry): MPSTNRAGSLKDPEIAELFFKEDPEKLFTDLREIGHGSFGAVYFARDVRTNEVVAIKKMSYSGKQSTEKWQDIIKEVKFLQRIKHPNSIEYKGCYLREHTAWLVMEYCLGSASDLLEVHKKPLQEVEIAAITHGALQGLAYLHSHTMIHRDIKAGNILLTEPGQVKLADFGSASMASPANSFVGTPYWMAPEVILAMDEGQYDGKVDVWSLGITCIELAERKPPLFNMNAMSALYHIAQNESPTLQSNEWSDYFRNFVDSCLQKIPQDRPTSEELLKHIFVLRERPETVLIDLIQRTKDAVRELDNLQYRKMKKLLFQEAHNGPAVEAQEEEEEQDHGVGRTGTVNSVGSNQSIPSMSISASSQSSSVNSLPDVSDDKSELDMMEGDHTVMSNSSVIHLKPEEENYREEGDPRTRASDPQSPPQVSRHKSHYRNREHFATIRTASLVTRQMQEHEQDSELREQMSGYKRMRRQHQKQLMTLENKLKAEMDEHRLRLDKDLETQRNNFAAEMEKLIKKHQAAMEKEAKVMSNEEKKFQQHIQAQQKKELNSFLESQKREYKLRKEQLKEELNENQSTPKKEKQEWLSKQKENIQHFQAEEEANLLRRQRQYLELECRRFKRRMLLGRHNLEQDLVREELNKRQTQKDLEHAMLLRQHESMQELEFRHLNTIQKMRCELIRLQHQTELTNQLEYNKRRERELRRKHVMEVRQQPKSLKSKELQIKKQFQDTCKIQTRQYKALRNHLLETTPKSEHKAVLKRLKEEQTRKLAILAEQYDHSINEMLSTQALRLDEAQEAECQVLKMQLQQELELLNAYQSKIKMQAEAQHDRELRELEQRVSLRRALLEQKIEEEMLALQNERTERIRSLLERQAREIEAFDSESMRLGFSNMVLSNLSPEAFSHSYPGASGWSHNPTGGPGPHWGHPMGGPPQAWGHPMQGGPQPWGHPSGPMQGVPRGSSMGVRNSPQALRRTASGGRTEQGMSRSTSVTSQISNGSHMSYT

[18] = target: Glycogen synthase kinase-3 alpha (Homo sapiens, UniProt P49840);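 also: GSK3A result taken from a broad kinome-wide kinase panel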
Sequence of Glycogen synthase kinase-3 alpha (P49840 whole entry): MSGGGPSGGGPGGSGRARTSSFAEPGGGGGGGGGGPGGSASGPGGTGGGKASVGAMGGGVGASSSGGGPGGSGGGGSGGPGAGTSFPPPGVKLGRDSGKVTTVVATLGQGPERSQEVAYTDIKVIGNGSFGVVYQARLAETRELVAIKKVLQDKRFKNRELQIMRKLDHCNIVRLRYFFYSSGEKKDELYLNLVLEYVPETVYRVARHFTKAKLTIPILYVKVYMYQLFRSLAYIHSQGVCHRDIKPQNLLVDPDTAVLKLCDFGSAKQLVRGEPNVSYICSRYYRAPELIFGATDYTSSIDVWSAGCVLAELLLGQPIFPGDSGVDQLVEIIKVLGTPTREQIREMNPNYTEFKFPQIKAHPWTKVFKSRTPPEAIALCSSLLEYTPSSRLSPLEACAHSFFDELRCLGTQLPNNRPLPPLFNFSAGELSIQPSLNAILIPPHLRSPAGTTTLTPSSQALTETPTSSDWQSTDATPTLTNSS

[19] = target: Activated CDC42 kinase 1 (Homo sapiens, UniProt Q07912); experiment: Navigating the Kinome. Panel member name: ACK1
[20] = target: Serine/threonine-protein kinase Chk1 (Homo sapiens, UniProt O14757);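 also: measured as one member of a kinome-wide kinase profiling panel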
[21] = target: G protein-coupled receptor kinase 5 (Homo sapiens, UniProt P34947); experiment: Navigating the Kinome. Panel member name: GPRK5
[22] = target: Cyclin-dependent kinase 5 (Homo sapiens, UniProt Q00535);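 also: CDK5 measured as one member of a kinase profiling panel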
Sequence of Cyclin-dependent kinase 5 (Q00535 whole entry): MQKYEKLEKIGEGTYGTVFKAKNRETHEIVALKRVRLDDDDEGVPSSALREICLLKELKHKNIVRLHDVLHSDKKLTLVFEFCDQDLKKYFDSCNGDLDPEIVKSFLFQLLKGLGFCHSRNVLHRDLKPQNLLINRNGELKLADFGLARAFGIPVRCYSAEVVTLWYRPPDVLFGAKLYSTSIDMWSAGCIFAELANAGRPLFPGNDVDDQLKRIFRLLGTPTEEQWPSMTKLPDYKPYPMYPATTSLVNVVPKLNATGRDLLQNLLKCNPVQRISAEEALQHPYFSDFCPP

[23] = target: Focal adhesion kinase 1 (Homo sapiens, UniProt Q05397);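 also: measured as one member of a kinome panel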
[24] = target: Aurora kinase B (Homo sapiens, UniProt Q96GD4)
[25] = target: Tyrosine-protein kinase Fyn (Homo sapiens, UniProt P06241)
Sequence of Tyrosine-protein kinase Fyn (P06241 whole entry): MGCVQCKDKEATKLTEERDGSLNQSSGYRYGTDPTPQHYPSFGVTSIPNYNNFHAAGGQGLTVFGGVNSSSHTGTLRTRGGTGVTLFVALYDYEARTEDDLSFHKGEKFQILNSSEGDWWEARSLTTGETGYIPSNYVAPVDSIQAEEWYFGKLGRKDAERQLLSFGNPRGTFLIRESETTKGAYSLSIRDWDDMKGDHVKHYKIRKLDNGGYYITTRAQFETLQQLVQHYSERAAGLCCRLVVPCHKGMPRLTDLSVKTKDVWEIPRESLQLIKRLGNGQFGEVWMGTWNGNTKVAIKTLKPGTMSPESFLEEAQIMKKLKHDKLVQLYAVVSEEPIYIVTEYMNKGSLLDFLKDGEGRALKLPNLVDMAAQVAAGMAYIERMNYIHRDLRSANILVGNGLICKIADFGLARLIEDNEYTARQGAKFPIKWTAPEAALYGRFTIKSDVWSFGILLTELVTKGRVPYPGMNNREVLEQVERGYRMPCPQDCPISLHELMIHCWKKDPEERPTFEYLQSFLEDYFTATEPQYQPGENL

[26] = target: Serine/threonine-protein kinase Nek2 (Homo sapiens, UniProt P51955)
[27] = target: Cyclin-dependent kinase 8 (Homo sapiens, UniProt P49336); experiment: Navigating the Kinome. Panel member name: CDK8
[28] = target: Cyclin-dependent kinase 7 (Homo sapiens, UniProt P50613);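 also: value comes from a kinome-wide kinase profiling panel in which CDK7 is one member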
[29] = target: Vascular endothelial growth factor receptor 1 (Homo sapiens, UniProt P17948);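 also: measured within a kinome-wide profiling panel, FLT1 as the panel member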
[30] = target: BDNF/NT-3 growth factors receptor (Homo sapiens, UniProt Q16620);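 also: NTRK2 measured as one member of a broad kinome-wide kinase profiling panel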
[31] = target: Dual specificity protein kinase CLK4 (Homo sapiens, UniProt Q9HAZ1)
[32] = target: Mitogen-activated protein kinase kinase kinase kinase 4 (Homo sapiens, UniProt O95819)
[33] = target: Macrophage-stimulating protein receptor (Homo sapiens, UniProt Q04912); experiment: Navigating the Kinome. Panel member name: MST1R
[34] = target: Dual specificity mitogen-activated protein kinase kinase 2 (Homo sapiens, UniProt P36507); experiment: Navigating the Kinome. Panel member name: MAP2K2
[35] = target: Dual specificity tyrosine-phosphorylation-regulated kinase 1A (Homo sapiens, UniProt Q13627);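 also: measured against DYRK1A as one member of a broad kinome profiling panel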
[36] = target: Calcium/calmodulin-dependent protein kinase type II subunit alpha (Homo sapiens, UniProt Q9UQM7); experiment: Navigating the Kinome. Panel member name: CAMK2A
[37] = target: Mitogen-activated protein kinase 14 (Homo sapiens, UniProt Q16539);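 also: part of a kinome-wide panel, MAPK14 entry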
[38] = target: T1, High affinity choline transporter 1 (Homo sapiens, UniProt Q9GZV3); experiment: human choline transporter blockers, potency – cell-based, 5-point CRC, membrane potential dye, dose response (AID 504840)
T1 sequence (Q9GZV3 whole entry): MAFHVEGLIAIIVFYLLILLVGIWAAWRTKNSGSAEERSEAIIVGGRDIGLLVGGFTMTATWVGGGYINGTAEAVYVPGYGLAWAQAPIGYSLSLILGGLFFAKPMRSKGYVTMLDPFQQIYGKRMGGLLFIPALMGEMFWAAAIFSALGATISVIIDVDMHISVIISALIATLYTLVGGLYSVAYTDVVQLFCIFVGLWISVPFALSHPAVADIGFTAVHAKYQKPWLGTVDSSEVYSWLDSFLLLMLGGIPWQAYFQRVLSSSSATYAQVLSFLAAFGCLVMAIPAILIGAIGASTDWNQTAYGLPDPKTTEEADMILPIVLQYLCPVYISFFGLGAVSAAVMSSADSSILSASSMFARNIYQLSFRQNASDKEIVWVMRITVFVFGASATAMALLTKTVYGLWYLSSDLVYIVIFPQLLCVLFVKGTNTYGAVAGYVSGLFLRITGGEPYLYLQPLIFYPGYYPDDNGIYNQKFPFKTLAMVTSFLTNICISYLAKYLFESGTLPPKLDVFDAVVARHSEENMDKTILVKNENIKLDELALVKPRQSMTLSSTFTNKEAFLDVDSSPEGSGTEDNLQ

[39] = target: T1, High affinity choline transporter 1; experiment: human choline transporter blockers, potency – cell-based, 10-point CRC, membrane potential dye, dose response (AID 588401);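 also: membrane potential dye fluorescence of choline-evoked depolarization via CHT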
[40] = target: Melanin-concentrating hormone receptor 1 (Homo sapiens, UniProt Q99705); experiment: Late-stage fluorescence-based counterscreen for antagonists of the G-protein coupled receptor 7 (GPR7): cell-based dose response assay to identify antagonists of the melanin-concentrating hormone receptor 1 (MCHR1) Set 6.
[41] = target: Neuropeptides B/W receptor type 1 (Homo sapiens, UniProt P48145); experiment: human NPBW1 receptor blockade, IC50 – cell-based, fluorescence, dose response, set 6, late-stage follow-up (AID 588583)

Ki [1]: > 3.98 µM (inactive)
Ki [2]: > 6.31 µM (inactive)
Ki [3]: > 3.98 µM (inactive)
Ki [4]: > 6.31 µM (inactive)
Ki [6]: > 3.98 µM (inactive)
Ki [7]: > 5.01 µM (inactive)
Ki [8]: > 6.31 µM (inactive)
Ki [9]: 1.26 µM (active)
Ki [10]: > 6.31 µM (inactive)
Ki [11]: > 5.01 µM (inactive)
Ki [12]: > 3.98 µM (inactive)
Ki [13]: 2.51 µM (active)
Ki [14]: > 5.01 µM (inactive)
Ki [15]: > 3.98 µM (inactive)
Ki [16]: 0.794 µM (active)
Ki [17]: > 6.31 µM (inactive)
Ki [18]: > 3.98 µM (inactive)
Ki [19]: > 3.98 µM (inactive)
Ki [20]: 0.398 µM (active)
Ki [21]: > 3.98 µM (inactive)
Ki [22]: 2.51 µM (active)
Ki [23]: > 6.31 µM (inactive)
Ki [24]: > 3.98 µM (inactive)
Ki [25]: > 6.31 µM (inactive)
Ki [26]: 2 µM (active)
Ki [27]: 3.16 µM (active)
Ki [28]: > 3.98 µM (inactive)
Ki [29]: > 3.98 µM (inactive)
Ki [30]: > 3.98 µM (inactive)
Ki [31]: 0.501 µM (active)
Ki [32]: > 5.01 µM (inactive)
Ki [33]: > 3.98 µM (inactive)
Ki [34]: > 3.98 µM (inactive)
Ki [35]: 1 µM (active)
Ki [36]: > 3.98 µM (inactive)
Ki [37]: > 3.98 µM (inactive)
Compound: Nc1ccc2c(C(=O)O)n(-c3ccccc3)nc2c1
Ki [5]: > 5.01 µM (inactive)

IC50 [38]: 2.46 µM (active)
IC50 [39]: 1.19 µM (active)
Compound: CCCCN(CCCC)CCCNC(=O)C12CN(Cc3ccccc3)CC1C(c1cccc([N+](=O)[O-])c1)=NO2 (stereo unspecified)

IC50 [40]: 0.83 µM (active)
IC50 [41]: 0.83 µM (active)
Compound: N#CC(c1ccc(Cl)cc1)c1c(Cl)cnn(Cc2cccc3ccccc23)c1=O (stereo unspecified)
